From patent US8586755B2, “Substituted nicotinamides as KCNQ2/3 modulators” (Grünenthal GmbH, priority 2009, dated 2013)

Molecular target: T1, KCNQ2/3 channels (Homo sapiens, UniProt O43525+O43526)
T1 construct: expressed in transfected cells
Experiment: Fluorescence assay using a voltage sensitive dye (fluorimetry)
Format: cell-based
Conditions: CHO-K1 cells expressing KCNQ2/3 channels; for EC50: agonistic activity; for Emax / Fluorimetry % efficacy (retigabine 50 μM = 100%): retigabine 50 μM = 100%; for Emax: read-out: Fluorimetry % efficacy (retigabine 50 μM = 100%)
Description: Pharmacological Experiments Fluorescence Assay Using a Voltage Sensitive Dye
Human CHO-K1 cells expressing KCNQ2/3 channels are cultivated adherently at 37° C., 5% CO2 and 95% humidity in cell culture bottles (e.g. 80 cm^2 TC flasks, Nunc) with DMEM-high glucose (Sigma Aldrich, D7777) including 10% FCS (PAN Biotech, e.g. 3302-P270521) or alternatively MEM Alpha Medium (1×, liquid, Invitrogen, #22571), 10% fetal calf serum (FCS) (Invitrogen, #10270-106, heat-inactivated) and the necessary selection antibiotics.
Before being sown out for the measurements, the cells are washed with a 1×DPBS buffer without Ca^2+/Mg^2+ (e.g. Invitrogen, #14190-094) and detached from the bottom of the culture vessel by means of Accutase (PAA Laboratories, #L11-007) (incubation with Accutase for 15 min at 37° C.). The cell count then present is determined using a CASY™ cell counter (TCC model, Schärfe System) in order subsequently to apply, depending on the density optimization for the individual cell line, 20,000-30,000 cells/well/100 μl of the described nutrient medium to 96-well measuring plates of the Corning™ CellBIND™ type (Flat Clear Bottom Black Polystyrene Microplates, #3340). Incubation is then carried out for one hour at room temperature, without gassing or adjusting the humidity, followed by incubation for 24 hours at 37° C., 5% CO2 and 95% humidity.
The voltage-sensitive fluorescent dye from the Membrane Potential Assay Kit (Red™ Bulk format part R8123 for FLIPR, MDS Analytical Technologies™) is prepared by dissolving the contents of a vessel Membrane Potential Assay Kit Red Component A in 200 ml of extracellular buffer (ES buffer, 120 mM NaCl, 1 mM KCl, 10 mM HEPES, 2 mM CaCl2, 2 mM MgCl2, 10 mM glucose; pH 7.4). After removal of the nutrient medium, the cells are washed with 200 μl of ES buffer, then covered with a layer of 100 μl of the dye solution prepared above and incubated for 45 min at room temperature with the exclusion of light.
The fluorescence measurements are carried out with a BMG Labtech FLUOstar™ BMG Labtech NOVOstar™ or BMG Labtech POLARstar™ instrument (525 nm excitation, 560 nm emission, Bottom Read mode). After incubation of the dye, 50 μl of the test substances in the desired concentrations, or 50 μl of ES buffer for control purposes, are introduced into separate cavities of the measuring plate and incubated for 30 min at room temperature while being shielded from light. The fluorescence intensity of the dye is then measured for 5 min and the fluorescence value F1 of each well is thus determined at a given, constant time. 15 μl of a […] KCl solution ([…]) are then added to each well. The change in fluorescence is subsequently measured until all the relevant measured values have been obtained (mainly 5-30 min). At a given time after KCl application, a fluorescence value F2 is determined, in this case at the time of the fluorescence peak.
For calculation, the fluorescence intensity F2 is compared with the fluorescence intensity F1, and the agonistic activity of the target compound on the potassium channel is determined therefrom. F2 and F1 are calculated as follows: […]
In order to determine whether a substance has agonistic activity,
A substance has an agonistic activity on the potassium channel when
[formula] it is possible to conclude that a target compound has agonistic activity if an increase in
[formula] is to be observed as the dosage of the target compound increases.
Calculations of EC50 values are carried out with the aid of ‘Prism v4.0’ software (GraphPad Software™).

EC50 [nM] | Emax [%] | Fluorimetry % efficacy (retigabine 50 μM = 100%) [%] | SMILES
50 | 121 |  | O=C(NCc1ccccc1)c1cccnc1SCCCc1ccc(F)cc1 [compound 66, N-Benzyl-2-[3-(4-fluorophenyl)-propylsulfanyl]-pyridine-3-carboxylic acid amide]
394 | 59 |  | Cc1cccc(CCNC(=O)c2cccnc2SCCCc2ccc(F)cc2)c1 [compound 85, 2-[3-(4-Fluorophenyl)-propylsulfanyl]-N-[2-(m-tolyl)-ethyl]-pyridine-3-carboxylic acid amide]
 |  | 34 | Cc1ccnc(SCCCc2ccc(F)cc2)c1C(=O)NCc1cccs1 [compound 147]
20 | 124 |  | CC(CCc1ccc(F)c(F)c1)Sc1ncccc1C(=O)NCc1ccc(F)cc1 (centres unmarked) [compound 199, 2-[[3-(3,4-Difluoro-phenyl)-1-methyl-propyl]sulfanyl]-N-[(4-fluorophenyl)-methyl]-pyridine-3-carboxylic acid amide]
319 | 53 |  | O=C(NCCc1ccccc1)c1cccnc1SCCCc1ccc(F)cc1 [compound 78, 2-[3-(4-Fluorophenyl)-propylsulfanyl]-N-phenethyl-pyridine-3-carboxylic acid amide]
167 | 212 |  | CCCNC(=O)c1cccnc1SCCC(F)(F)c1ccc(F)cc1 [compound 185, 2-[[3,3-Difluoro-3-(4-fluorophenyl)-propyl]sulfanyl]-N-propyl-pyridine-3-carboxylic acid amide]
1590 | 48 |  | O=C(NCc1cccs1)c1cccnc1SCCCCc1ccccc1 [compound 100, 2-(4-Phenyl-butylsulfanyl)-N-(thiophen-2-yl-methyl)-pyridine-3-carboxylic acid amide]
2060 | 147 |  | O=C(NCCCc1ccncc1)c1cccnc1SCCCc1ccc(F)cc1 [compound 95, 2-[3-(4-Fluorophenyl)-propylsulfanyl]-N-(3-pyridine-4-yl-propyl)-pyridine-3-carboxylic acid amide]
134 | 213 |  | O=C(NCc1ccco1)c1cccnc1SCCCc1ccc(F)cc1 [compound 174, 2-[3-(4-Fluorophenyl)-propylsulfanyl]-N-(furan-2-yl-methyl)-pyridine-3-carboxylic acid amide]
74 | 89 |  | O=C(NCc1ccc(Cl)s1)c1cccnc1SCCCc1ccc(F)cc1 [compound 37, N-[(5-Chloro-thiophen-2-yl)-methyl]-2-[3-(4-fluorophenyl)-propylsulfanyl]-pyridine-3-carboxylic acid amide]
153 | 94 |  | O=C(NCc1cccc(-c2ccccc2)c1)c1cccnc1SCCCc1ccc(F)cc1 [compound 122, 2-[3-(4-Fluorophenyl)-propylsulfanyl]-N-[(3-phenyl-phenyl)-methyl]-pyridine-3-carboxylic acid amide]

The remaining lines, values behind:

SMILES | EC50 [nM] | Emax [%] | Fluorimetry % efficacy (retigabine 50 μM = 100%) [%]
CN(C)CCNC(=O)c1cccnc1SCCC(F)(F)c1ccc(F)cc1 [compound 198, 2-[[3,3-Difluoro-3-(4-fluorophenyl)-propyl]sulfanyl]-N-(2-dimethylaminoethyl)-pyridine-3-carboxylic acid amide] | 8840 | 110 | 
O=C(NCc1cccs1)c1cccnc1SCCCc1ccsc1 [compound 106, N-(Thiophen-2-yl-methyl)-2-(3-thiophen-3-yl-propylsulfanyl)-pyridine-3-carboxylic acid amide] | 191 | 95 | 
O=C(NCC1CC2CCC1C2)c1cccnc1SCCCc1ccc(C(F)(F)F)cc1 (centres unmarked) [compound 34, N-(5-Bicyclo[2.2.1]heptanyl-methyl)-2-[3-[4-(trifluoromethyl)-phenyl]-propylsulfanyl]-pyridine-3-carboxylic acid amide] | 463 | 204 | 
CC(C)(C)CCNC(=O)c1cccnc1SC1CCCC1Cc1ccccc1 (centres unmarked) [compound 155, 2-[(2-Benzyl-cyclopentyl)sulfanyl]-N-(3,3-dimethyl-butyl)-pyridine-3-carboxylic acid amide] | 657 | 159 | 
O=C(NCC1CC2CCC1C2)c1cccnc1SCCOc1cccc(C(F)(F)F)c1 (centres unmarked) [compound 47, N-(5-Bicyclo[2.2.1]heptanyl-methyl)-2-[2-[3-(trifluoromethyl)-phenoxy]-ethylsulfanyl]-pyridine-3-carboxylic acid amide] | 218 | 183 | 
CC(C)CCCSc1ncccc1C(=O)NCc1cccs1 [compound 5, 2-(4-Methyl-pentylsulfanyl)-N-(thiophen-2-yl-methyl)-pyridine-3-carboxylic acid amide] | 435 | 161 | 
O=C(NCC1CCCCCC1)c1cccnc1CCCS(=O)(=O)c1cccc(C(F)(F)F)c1 [compound 31, N-(Cycloheptyl-methyl)-2-[3-[[3-(trifluoromethyl)phenyl]sulfonyl]-propyl]-pyridine-3-carboxylic acid amide] | 437 | 98 | 
O=C(NCc1cccs1)c1cccnc1CCCCc1cccc(C(F)(F)F)c1 [compound 21] | 364 |  | 126
O=C(NCC1CC2CCC1C2)c1cccnc1CCCSc1ccc(F)cc1 (centres unmarked) [compound 30, N-(5-Bicyclo[2.2.1]heptanyl-methyl)-2-[3-[(4-fluorophenyl)sulfanyl]-propyl]-pyridine-3-carboxylic acid amide] | 630 | 261 | 
CCCCCNC(=O)c1cccnc1SCCC(F)(F)c1ccc(F)cc1 [compound 192, 2-[[3,3-Difluoro-3-(4-fluorophenyl)-propyl]sulfanyl]-N-pentyl-pyridine-3-carboxylic acid amide] | 32 | 195 | 
CC(CCc1ccc(F)cc1)Sc1ncccc1C(=O)NCC1CC2CCC1C2 (centres unmarked) [compound 74, N-(5-Bicyclo[2.2.1]heptanyl-methyl)-2-[[3-(4-fluorophenyl)-1-methyl-propyl]sulfanyl]-pyridine-3-carboxylic acid amide] | 62 | 260 | 
O=C(NCc1cccs1)c1cccnc1SCCCc1ccccn1 [compound 111, 2-(3-Pyridin-2-yl-propylsulfanyl)-N-(thiophen-2-yl-methyl)-pyridine-3-carboxylic acid amide] | 11100 | 61 | 
O=C(NCC1CCCCCC1)c1cccnc1CCCSc1ccc(F)cc1 [compound 29, N-(Cycloheptyl-methyl)-2-[3-[(4-fluorophenyl)sulfanyl]-propyl]-pyridine-3-carboxylic acid amide] | 275 | 159 | 
CCCCCCNC(=O)c1cccnc1SCCC(F)(F)c1ccc(F)cc1 [compound 186, 2-[[3,3-Difluoro-3-(4-fluorophenyl)-propyl]sulfanyl]-N-hexyl-pyridine-3-carboxylic acid amide] | 236 | 191 | 
O=C(NCC1C2CCC1CC2)c1cccnc1SCCCc1cccc(C(F)(F)F)c1 (centres unmarked) [compound 156, N-(7-Bicyclo[2.2.1]heptanyl-methyl)-2-[3-[3-(trifluoromethyl)phenyl]-propylsulfanyl]-pyridine-3-carboxylic acid amide] | 110 | 249 | 
O=C(NCC1CC2CCC1C2)c1cccnc1SCCCc1cc(F)c(F)cc1F (centres unmarked) [compound 92, N-(5-Bicyclo[2.2.1]heptanyl-methyl)-2-[3-(2,4,5-trifluoro-phenyl)-propylsulfanyl]-pyridine-3-carboxylic acid amide] | 138 | 270 | 
